According to patent US11892406B2, “Method and device for assaying the interaction and dynamics of permeation of a molecule and a lipid bilayer” (DUBLIN CITY UNIVERSITY, priority 2018, dated 2024):

Key:
Type in all cases: in vitro ADME
[1] = Metal enhanced fluorescence permeation assay, DOPC bilayer spanned over gold microcavity array
Method: (§1) Following removal of PS spheres, if in place, washing and aqueous filling of the array a Langmuir monolayer of lipids was spread across the micropore array, using either a Model 102M, LB trough or Model KN2006 from KSV-NIMA technology, LB alternate. The lipid mixture (across single or diverse lipid compositions) was prepared in chloroform at a concentration of 1 mg/ml. 50 μL of this solution was suspended on the water sub-phase. Fifteen minutes were allocated for evaporation of the solvent, prior to lipid monolayer compression. […]
(§2) A Horiba Labram HR instrument was used for both Raman and fluorescence measurements using a 50× long distance magnification objective (Leica). The wavelengths were typically 473 nm and 785 nm were used for fluorescence measurements and Raman measurements respectively. […] Typically a 1% neutral density filter and 300 μm slit were used for fluorescence and no filter for Raman. […]
(§3) For drug/molecular diffusion studies, drug solutions were prepared as stock solutions for introduction into the bilayer contacting solution dissolved in PBS or Tris buffer at concentrations that permitted final concentrations (on contact with the bilayer buffer) of 1 nM to several millimolar. […] Drug diffusion samples were analysed by first obtaining a bilayer spectra while sample is immersed in PBS. […]

[2] = Metal enhanced fluorescence permeation assay, ternary domain forming lipid bilayer on gold microcavity array; conditions: 0.1 mM
Method: as §1, §2, §3

[3] = SERS permeation assay, DOPC lipid bilayer suspended over gold cavity array; conditions: 1 um gold array, PBS buffer, 785 nm
Method: as §1, §2, §3

SMILES: COc1cccc2c1C(=O)c1c(O)c3c(c(O)c1C2=O)C[C@@](O)(C(=O)CO)C[C@@H]3O[C@H]1C[C@H](N)[C@H](O)[C@H](C)O1 [Doxorubicin]
- permeation through DOPC bilayer (fluorescent peak area at 600 nm vs time) ([1]; 0.1 mM, 2-hour monitoring, 1 μm diameter gold array): diffusing through the bilayer

SMILES: COc1cccc2c1C(=O)c1c(O)c3c(c(O)c1C2=O)C[C@@](O)(C(C)=O)C[C@@H]3O[C@H]1C[C@H](N)[C@H](O)[C@H](C)O1 [Duanorubicin]
- permeability of ternary lipid bilayer to the drug ([2]; 2-hour window, two replicate measurements, DOPC:SM:Chol 40:40:20): impermeable
- time for emission to reach steady state ([2]; unstirred solution, ternary bilayer): less than 20 mins

SMILES: CC(C)Cc1ccc(C(C)C(=O)O)cc1 (centres unmarked) [Ibuprofen]
- permeability across DOPC bilayer (dynamics of evolution of SERS signal, presence vs absence of bilayer) [3]: passively permeable

SMILES: [Ru+2].c1ccc(-c2ccccn2)nc1.c1ccc(-c2ccccn2)nc1.c1ccc(-c2ccccn2)nc1 [[Ru(bpy)3[ complex]
- membrane permeability at DOPC bilayers (second emission rise and plateau) ([1]; DOPC bilayers, fluorescence): impermeable
